For 13 molecules, GI50 and TGI results are on record in PubChem BioAssay (NCI).

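Cells were grown in 96-well plates and exposed to each compound for 48 hours at five concentrations; endpoints were interpolated linearly between bracketing concentrations, or set to the highest concentration if not reached. The concentration for 50% growth inhibition is given as GI50. TGI marks complete inhibition of growth.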

For orientation: GI50 means the concentration at which growth is held to half of that of the control. In general, TGI refers to the concentration giving total growth inhibition.

Holding throughout (experiment): DTP human tumour cell line panel, 48 h
In assay [1] the test system is RPMI-8226 leukemia.
The test system of assay [2] is SW-620 colon.
For assay [3], the system named is SF-295 CNS.
Assay [4] concerns A549 NSCLC.
The test system of assay [5] is HCC-2998 colon.
Assay [6] concerns SK-OV-3 ovarian.
Assay [7] deals with TK-10 renal.
In assay [8] the test system is OVCAR-8 ovarian.
Assay [9] deals with COLO 205 colon.
Assay [10] relates to NCI-H522 lung.

Regarding `[F][Sn]([F])([c]1ccccc1)[c]1ccccc1`, the GI50 was 1.11 µM in assay [1]; 1.36 µM in [2]; 1.99 µM in [3]; 2.33 µM in assay [4]; 1.63 µM in [5]; 2.31 µM in assay [6]. In addition, the GI50 in assay [7] is 1.89 µM; in [8] it was 2.05 µM; in assay [9], 1.81 µM. Also, the TGI was found to be 3.79 µM in assay [1]; 3.02 µM in [2]; 3.85 µM in [3]; 6.45 µM in assay [4]; 3.04 µM in [5]; 7.49 µM in assay [6]. Further, the TGI in [7] was 3.44 µM; in assay [8] it was 4.88 µM; in assay [9] it was 3.97 µM.

As for `CCOC(=O)Cn1c(=O)n(C)c(=O)c2c1ncn2Cc1ccccc1`, the TGI in [1], in assay [2], in assay [4], in assay [10], in [6] and in assay [7] was > 100 µM in each case. For the same molecule, the total growth inhibition concentration (TGI) in [8] and in [9] was > 100 µM throughout.

On to `COc1cc(C(=O)N2CCc3c([nH]c4c([N+](=O)[O-])c(OC)ccc34)C2C)cc(OC)c1OC` (stereo unspecified), for which the concentration for total growth inhibition (TGI) in assay [1], in assay [2], in assay [3], in [4], in [5] and in assay [10] was > 100 µM throughout. The concentration for total growth inhibition (TGI) in [7], in assay [8] and in [9] was > 100 µM in each case.

`Nc1nc(N)nc(CCCc2nc(N)nc(N)n2)n1`: the TGI in [1], in assay [2], in assay [3], in assay [4], in [10] and in assay [6] was > 100 µM in each case. The TGI in [7], in assay [8] and in [9] was > 100 µM in each case.

Consider `Clc1ccc(N=CNc2ccc(-c3nc4ccccc4o3)cc2)cc1`, for which the GI50 in assay [1] is 23.7 µM; in [2], 2.9 µM; in assay [3] it was 19.4 µM; in assay [4] it was 38 µM; in assay [6], 28.6 µM; in [7] it was 21 µM. Besides, the GI50 in [8] was 21.1 µM; in [9] it was 22.7 µM. Moreover, the TGI in [1] was > 100 µM; in [2], 8.16 µM; in assay [3], 45.9 µM; in assay [4], > 100 µM; in [6] it was > 100 µM; in assay [7], 54.2 µM. The results for the concentration for total growth inhibition (TGI) in [8] and in assay [9] were 40.9 µM and > 100 µM, respectively.

With `CC1=C(c2cc(C(=O)Nc3ccc(Cl)cc3)nc(=S)[nH]2)Sc2ccccc2N1`, the total growth inhibition concentration (TGI) in assay [2], in assay [3], in [4], in [5], in assay [10] and in assay [6] was > 100 µM throughout. Moreover, the TGI in [7], in assay [8] and in assay [9] was > 100 µM throughout.

Regarding `C/C(CCn1[nH]c(=O)ccc1=O)=N\OCCCc1ccccc1`, the TGI in assay [1], in [2], in assay [3], in assay [4], in assay [5] and in [7] was > 100 µM throughout. For the same molecule, the total growth inhibition concentration (TGI) in assay [8] is > 100 µM.

On to `C[C@]12CC[C@@H]3c4ccc(O)c([N+](=O)[O-])c4CC[C@H]3[C@@H]1CC[C@@H]2NS(=O)(=O)c1cccc(Br)c1`, for which the GI50 in assay [1] is 2.44 µM; in [2] it was 2.7 µM; in assay [3] it was 1.68 µM; in assay [4] it was 2.81 µM; in [5], 2.06 µM; in assay [6], 2.94 µM. Moreover, the GI50 is 2.92 µM in assay [7], 2.92 µM in assay [8] and 2.78 µM in assay [9]. Further, the TGI in [1] is 6.27 µM; in [2], 9.42 µM; in [3] it was 3.13 µM; in assay [4], 8.89 µM; in assay [5], 3.97 µM; in assay [6], 7.53 µM. The TGI in [7] is 8.98 µM; in [8] it was 10.7 µM; in assay [9] it was 7.26 µM.

Take `Cc1cc(C(C)(C)C)cc(Cc2cc(C(C)(C)C)cc(Cc3cc(C(C)(C)C)cc(C)c3O)c2O)c1O`: the concentration for total growth inhibition (TGI) in assay [1] was 6.44 µM; in [2], 17.4 µM; in assay [3] it was 29.4 µM; in assay [4] it was 18.7 µM; in assay [10], 13.2 µM; in [6] it was 27.9 µM. In addition, the TGI is 30 µM in assay [7], 17.6 µM in [8] and 29.7 µM in [9].

`O=C(O)C12CC3(C(=O)O)CC(C(=O)O)(CC(C(=O)O)(C1)C3=O)C2=O`: the TGI in assay [1], in assay [2], in assay [3], in [4], in [10] and in assay [6] was > 100 µM in each case. Also, the TGI in [7], in assay [8] and in [9] was > 100 µM in each case.

For the molecule `CCOc1ccccc1NC(=O)C(=O)Cc1nc2ccccc2s1`, the total growth inhibition concentration (TGI) in assay [2], in [3], in [4], in assay [5], in assay [10] and in assay [6] was > 100 µM in each case. In addition, the total growth inhibition concentration (TGI) in assay [7], in assay [8] and in [9] was > 100 µM in each case.

Regarding `Cc1cccc(N=C2NC(=O)C(CC(=O)Nc3cccc(C)c3C)S2)c1` (stereo unspecified), the TGI in [1], in assay [2], in assay [3], in assay [4], in assay [5] and in [7] was > 100 µM each time. Besides, the TGI in assay [8] and in assay [9] was > 100 µM each time.

For the molecule `CC(C)(C)OC(=O)N1N=NC2C1C1CC(OCc3ccccc3)(OCc3ccccc3)C2O1` (stereo unspecified), the total growth inhibition concentration (TGI) is 63.6 µM in assay [1]; 47.6 µM in [2]; > 100 µM in assay [3]; > 100 µM in assay [4]; > 100 µM in assay [5]; > 100 µM in [6]. For the same molecule, the concentration for total growth inhibition (TGI) in assay [9] is > 100 µM.
